Experimental data reported in ChEMBL document CHEMBL1201862, “PubChem BioAssay data set” (2004).
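48-hour exposure; five concentrations; linearly interpolated endpoints. The concentration for 50% growth inhibition is given as GI50.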 Active and inactive are the calls of the source. Cut-off read from the data, not from the text of the source: active = GI50 up to about 1.1 µM and inactive = higher.

How the values were obtained:
Test in all cases: NCI tumour cell line growth inhibition, 48 h
[1] = test system: 786-0
[2] = test system: A498
[3] = test system: A549
[4] = test system: ACHN
[5] = test system: BT-549
[6] = test system: CAKI-1
[7] = test system: COLO 205
[8] = test system: DU-145
[9] = test system: EKVX
[10] = test system: HCC 2998
[11] = test system: HCT-116
[12] = test system: HCT-15
[13] = test system: HL-60
[14] = test system: HOP-62
[15] = test system: HOP-92
[16] = test system: HT-29
[17] = test system: K562
[18] = test system: KM12
[19] = test system: M14
[20] = test system: MCF7
[21] = test system: MDA-MB-231
[22] = test system: MDA-MB-435
[23] = test system: MOLT-4
[24] = test system: Malme-3M
[25] = test system: NCI-H226
[26] = test system: NCI-H23
[27] = test system: NCI-H460
[28] = test system: NCI-H522
[29] = test system: NCI/ADR-RES
[30] = test system: OVCAR-3
[31] = test system: OVCAR-4
[32] = test system: OVCAR-5
[33] = test system: OVCAR-8
[34] = test system: PC-3
[35] = test system: RPMI-8226
[36] = test system: RXF 393
[37] = test system: SF-268
[38] = test system: SF-295
[39] = test system: SF-539
[40] = test system: SK-MEL-28
[41] = test system: SK-MEL-2
[42] = test system: SK-OV-3
[43] = test system: SNB-19
[44] = test system: SNB-75
[45] = test system: SR
[46] = test system: SW-620
[47] = test system: TK-10
[48] = test system: U-251
[49] = test system: UACC-62
[50] = test system: UO-31
[51] = test system: CCRF-CEM
[52] = test system: IGROV-1
[53] = test system: LOX IMVI
[54] = test system: SK-MEL-5
[55] = test system: SN12C
[56] = test system: UACC-257
[57] = test system: Hs-578T
[58] = test system: MDA-N
[59] = test system: T47D

Measured: GI50

NS(=O)(=O)c1nnc(NS(=O)(=O)C(F)(F)F)s1
> 100 µM: [12]
inactive: [1] > 100 µM | [2] > 100 µM | [3] > 100 µM | [4] > 100 µM | [5] > 100 µM | [6] > 100 µM | [7] > 100 µM | [8] > 100 µM | [9] > 100 µM | [10] > 100 µM | [11] > 100 µM | [13] > 100 µM | [14] > 100 µM | [15] > 100 µM | [16] > 100 µM | [17] > 100 µM | [18] > 100 µM | [19] > 100 µM | [20] > 100 µM | [21] > 100 µM | [22] > 100 µM | [23] > 100 µM | [24] > 100 µM | [25] > 100 µM | [26] 77.3 µM | [27] > 100 µM | [28] > 100 µM | [29] > 100 µM | [30] > 100 µM | [31] > 100 µM | [32] > 100 µM | [33] > 100 µM | [34] > 100 µM | [35] > 100 µM | [36] > 100 µM | [37] > 100 µM | [38] > 100 µM | [39] > 100 µM | [40] > 100 µM | [41] > 100 µM | [42] > 100 µM | [43] > 100 µM | [44] > 100 µM | [45] 46.7 µM | [46] > 100 µM | [47] > 100 µM | [48] > 100 µM | [49] > 100 µM | [50] > 100 µM

CC1CNC(NS(=O)(=O)c2cc(C(=O)Nc3ccc(F)cc3)c(Cl)cc2S)=NN1 (configuration not stated)
37.8 µM: [12]
inactive: [1] > 100 µM | [2] 17.2 µM | [3] 49.4 µM | [4] 77.4 µM | [5] > 100 µM | [6] > 100 µM | [51] 42.5 µM | [7] 62.4 µM | [8] > 100 µM | [9] > 100 µM | [10] 40.5 µM | [11] 37.7 µM | [13] > 100 µM | [14] 75.7 µM | [16] 51.4 µM | [52] 71 µM | [17] 32.8 µM | [18] 49.3 µM | [53] 54.5 µM | [19] 42.3 µM | [20] 41 µM | [21] 82.2 µM | [22] 35.7 µM | [23] 59.3 µM | [24] 29.1 µM | [25] 36.4 µM | [26] 50.4 µM | [27] 78.5 µM | [28] 33.3 µM | [29] > 100 µM | [30] 92.9 µM | [31] > 100 µM | [32] 59.7 µM | [33] 73.8 µM | [34] 30.3 µM | [35] 34.9 µM | [37] 50.4 µM | [38] 66.5 µM | [39] 39.5 µM | [40] 56.2 µM | [41] 28.3 µM | [54] 26.2 µM | [42] > 100 µM | [55] > 100 µM | [43] 87.1 µM | [45] 43.5 µM | [46] 45.3 µM | [47] > 100 µM | [48] 48.4 µM | [56] > 100 µM | [49] 57.3 µM | [50] > 100 µM

COC(=O)c1ccccc1/C=C1\Cc2ccc3c(c2C1=O)CCC3
inactive: [1] > 100 µM | [2] > 100 µM | [3] > 100 µM | [4] > 100 µM | [6] > 100 µM | [51] > 100 µM | [7] > 100 µM | [8] > 100 µM | [9] > 100 µM | [10] > 100 µM | [11] > 100 µM | [13] > 100 µM | [14] > 100 µM | [15] > 100 µM | [16] > 100 µM | [57] > 100 µM | [52] > 100 µM | [17] > 100 µM | [18] > 100 µM | [53] > 100 µM | [20] > 100 µM | [21] > 100 µM | [22] > 100 µM | [58] > 100 µM | [23] > 100 µM | [24] > 100 µM | [25] > 100 µM | [26] > 100 µM | [27] > 100 µM | [28] > 100 µM | [29] > 100 µM | [30] > 100 µM | [31] > 100 µM | [32] > 100 µM | [33] > 100 µM | [34] > 100 µM | [35] > 100 µM | [36] > 100 µM | [37] > 100 µM | [38] > 100 µM | [39] > 100 µM | [40] > 100 µM | [54] > 100 µM | [42] > 100 µM | [55] > 100 µM | [44] > 100 µM | [45] > 100 µM | [46] > 100 µM | [59] > 100 µM | [47] > 100 µM | [48] > 100 µM | [56] > 100 µM | [49] > 100 µM | [50] > 100 µM
> 100 µM: [12]

CC(C)(C)c1ccc(O)c(C(O)c2cccnc2)c1 (configuration not stated)
72.1 µM: [12]
inactive: [1] > 100 µM | [3] > 100 µM | [4] > 100 µM | [5] > 100 µM | [6] > 100 µM | [51] 96.6 µM | [7] > 100 µM | [8] > 100 µM | [9] > 100 µM | [10] 76 µM | [11] > 100 µM | [14] > 100 µM | [16] > 100 µM | [57] > 100 µM | [52] > 100 µM | [17] 81.5 µM | [18] > 100 µM | [21] > 100 µM | [23] > 100 µM | [24] > 100 µM | [25] > 100 µM | [26] > 100 µM | [27] > 100 µM | [28] > 100 µM | [29] 94.6 µM | [30] > 100 µM | [32] > 100 µM | [33] > 100 µM | [36] > 100 µM | [37] > 100 µM | [39] > 100 µM | [40] > 100 µM | [54] 35 µM | [44] 57 µM | [46] > 100 µM | [59] 5.87 µM | [49] 16.6 µM | [50] > 100 µM
